Patent US20020049157A1, “Use of proteasome inhibitors for treating cancer, inflammation, autoimmune disease, graft rejection and septic shock” (priority 1998, published 2002)

Assays:
[1] = Activity of LAC in culture supernatants / medium over time; assay type: physicochemical; conditions: for inhibitory activity of LAC-conditioned media on proteasome activity of fresh Jurkat cells: LAC 6 μM
Method: C. The activity of LAC in culture supernatants is short-lived LAC (6 μM) was added to Jurkat cell culture (0.5×10^6 cells/ml). The supernatants were harvested at 4 h, 6 h, 16 h and 24 h. These conditioned media were used to culture fresh Jurkat cells for 3 h. The cells were then harvested and assayed for the proteasome activity as described in FIG. 4B. Samples were in duplicates.
We also investigated whether LAC was stable in the culture supernatant. LAC (6 μM) was added to Jurkat cells culture for 4 h, 6 h, 16 h or 24 h. The conditioned medium was harvested and used to treat fresh Jurkat cells for 3 h, and then the proteasome activity in the lysates of the fresh Jurkat cells was assayed. […] The loss of LAC activity in the 16 h and 24 h conditioned medium is unlikely due to trapping of LAC by proteasomes released by dead Jurkat cells, because LAC could rapidly enter the live cells and the equilibrium of the LAC concentration between both sides of the cytoplasmic membrane should be established very fast. Thus, the proteasomes whether released or not should not make a difference in terms of trapping LAC. Besides, we have also noticed that LAC kept in cell free culture medium at 4° C. would lose its activity within 24 h (data not shown).

IL-2 = IL-2 production by PBMC after PHA stimulation; assay type: cell-based, human; conditions: 2 to 4 days after PHA; LAC 10 μM added at the beginning; data not shown
Method: In the four systems of T and B cell activation and proliferation studied in the first section, the growth promoting activity of IL-2 is indirectly (for stimulation by PHA, anti-CD3, and anti-CD28 plus ionomycin), or directly (for SAC plus IL-2) involved. We then investigated the role of proteasome in IL-2Rα expression and IL-2 production. […] Under the experimental condition used, the viability of the LAC-treated cell was reasonable (>80% at 40 h) as described in the previous section as LAC was added only once initially. Moreover, no consistent change of IL-2 production in LAC-treated cells was a functional indication that the cell viability was reasonable and is not of a concern in interpreting the data. The results from this section indicate that IL-2Rα upregulation but not IL-2 production is proteasome-dependent, and the suppressed IL-2Rα expression likely contributes to LAC's inhibitory effect on T cells activation and proliferation. The Proteasome Activity is Critically Required Between G0 and G1/S Boundary in T Cells

CDK4 = experiment: Immunoprecipitation kinase assay, CDK4; assay type: cell-based, human; conditions: PHA-activated T cells; LAC 10 μM added once at 0 h; examined at 16 h and 40 h
Method: Tonsillar T cells were activated with PHA (2 μg/ml) for a period as indicated in each graph. LAC (10 μM) was added once at 0 h. The cells were harvested at 16 h, 24 h, or 40 h as indicated. An equal amount of lysate protein ([…]) was precipitated with rabbit anti-CDK4, anti-CDK2 or anti-Cyclin E antisera (2.5 μg Ab/sample). The immune complexes were assayed for their kinase activities using histone H1 as a substrate. (A) CDK4 kinase activity. (B) CDK2 kinase activity. (C) Cyclin E-associated CDK activity. The membrane in (C) was subsequently hybridized with anti-Cyclin E (1 μg/ml) followed by ^125I-protein A for the evaluation of the protein level of Cyclin E.
This was in agreement with the critical role of CDK4 in the early […].
Lymphocytes were lysed by a lysis buffer as used in the immunoblotting (Chen et al., 1996, supra), and cleared lysates were quantitated for their protein content. For immunoprecipitation, 50 μl of rabbit antisera against CDK2, CDK4 or Cyclin E were added to the lysates equivalent to 20 or 40 μg protein depending on the experiment. After 2 h incubation at 4° C., the immune complexes were recovered by protein A-conjugated Sepharose (Pharmacia Biotech, Montreal, Quebec, Canada). […] The proteins were then transferred to PVDF membranes and the signals were detected by autoradiography.

Bax, Bak and Bad = experiment: Immunoblotting of Bax, Bak and Bad in Jurkat cells; assay type: cell-based; conditions: lactacystin 6 μM
Method: Jurkat cells were treated with lactacystin (6 μM) for 5 h (lanes 2 and 4 of panel A), 4 h (lane 2 of panel B) or 7 h (lane 3 of panel B), lane 1 in panels A and B is untreated control samples. The cells were separated into mitochondrial (mito in panel A and mitochondria in panel B) and cytosolic (cytosol in panel A) fractions, and the lysate of these two fractions analyzed by immunoblotting using goat anti-Bik, and rabbit anti-Bax, Bak and Bad Ab (all from Santa Cruz Biotech, Santa Cruz, Calif.) followed by enhanced chemiluminescence (ECL, kit from Amersham).

Namalwa = experiment: Quantitative filter elution assay of DNA fragmentation in Namalwa cells; assay type: cell-based, human; conditions: lactacystin 0.75-10 μM; 24-96 h
Method: A human B cell line Namalwa was stably transfected with an anti-apoptotic Bcl-2 family member Bcl-xL, and its sensitivity to the proteasome inhibitor-induced apoptosis tested by the quantitative filter elution assay (Schmitt et al., 1998, Exp. Cell Res. 240:107), which detects DNA fragmentation during apoptosis. The wild type Namalwa and transfected Namalwa cells overexpressing Bcl-xL were pulsed with ^14C-thymidine for 24 h, and then treated with different concentrations of lactacystin (0.75 μM, 1.5 μM, 3 μM, 6 μM and 10 μM). The cells were harvested at different time intervals (24-96 h), and DNA fragmentation measured.

[2] = test system: calpain, cathepsin B, chymotrypsin, trypsin, and papain; conditions: cited from earlier work

inhibitory activity of LAC-conditioned media on proteasome activity of fresh Jurkat cells ([1]; media conditioned 16 h and 24 h): lost their inhibitory effect | time in which LAC loses its activity ([1]; cell free culture medium at 4° C., data not shown): ≤ 24 h | CDK4 kinase activity (CDK4): did not affect the CDK4 activity
Structure (SMILES): CC(=O)N[C@@H](CSC(=O)[C@]1([C@@H](O)C(C)C)NC(=O)[C@H](C)[C@@H]1O)C(=O)O [LAC, lactacystin]
inhibitory activity of LAC-conditioned media on proteasome activity of fresh Jurkat cells ([1]; media conditioned up to 6 h): could still actively inhibit the enzymatic activity | IL-2 production (IL-2): no consistent difference was found | amounts of Bax, Bak and Bad (Bax, Bak and Bad): does not appear to have altered | DNA fragmentation in Bcl-xL transfected vs wild type Namalwa cells (Namalwa): demonstrably less DNA fragmentation | effect on other proteases [2]: does not affect
